Active and inactive are the calls of the source. Cut-off read from the data, not from the text of the source, for most assays here: actives have a measured EC50 and inactives only a lower limit.
Key:
[1] = biological target: T1, Small ubiquitin-related modifier 1 (Homo sapiens, UniProt P63165); test: inhibitors of SUMO1 peptide binding, dose response, biochemical, fluorescence polarization, uHTS hits (AID 624382); format: functional; conditions: read-out: IC50_Mean
[2] = biological target: T1, Small ubiquitin-related modifier 1; test: inhibitors of SUMO1 partner interactions, dose response, biochemical, FRET (AID 624383); format: functional; conditions: read-out: IC50_Mean
[3] = biological target: T2, Beta-adrenergic receptor kinase 1 (Homo sapiens, UniProt P25098); test: GRK2 inhibitors displacing RNA aptamer, dose response, biochemical, flow cytometry beads, FAM-aptamer, powder set 1 (AID 588720)
[4] = biological target: T2, Beta-adrenergic receptor kinase 1; test: aptamer displacement from bead-bound GRK2 – biochemical, cherry pick 1, bead flow cytometry, dose response (AID 504500)
Protein RecA = biological target: T3, Protein RecA (Mycobacterium tuberculosis, UniProt P9WHJ3); test: Fluorescence Cell-Free Homogeneous Dose Retest to Identify Inhibitors of RecA-Intein Splicing Activity. [Related pubchem assays (depositor defined):AID2097, AID2223, AID489010, AID492950]; format: functional
T3 sequence (P9WHJ3 whole entry): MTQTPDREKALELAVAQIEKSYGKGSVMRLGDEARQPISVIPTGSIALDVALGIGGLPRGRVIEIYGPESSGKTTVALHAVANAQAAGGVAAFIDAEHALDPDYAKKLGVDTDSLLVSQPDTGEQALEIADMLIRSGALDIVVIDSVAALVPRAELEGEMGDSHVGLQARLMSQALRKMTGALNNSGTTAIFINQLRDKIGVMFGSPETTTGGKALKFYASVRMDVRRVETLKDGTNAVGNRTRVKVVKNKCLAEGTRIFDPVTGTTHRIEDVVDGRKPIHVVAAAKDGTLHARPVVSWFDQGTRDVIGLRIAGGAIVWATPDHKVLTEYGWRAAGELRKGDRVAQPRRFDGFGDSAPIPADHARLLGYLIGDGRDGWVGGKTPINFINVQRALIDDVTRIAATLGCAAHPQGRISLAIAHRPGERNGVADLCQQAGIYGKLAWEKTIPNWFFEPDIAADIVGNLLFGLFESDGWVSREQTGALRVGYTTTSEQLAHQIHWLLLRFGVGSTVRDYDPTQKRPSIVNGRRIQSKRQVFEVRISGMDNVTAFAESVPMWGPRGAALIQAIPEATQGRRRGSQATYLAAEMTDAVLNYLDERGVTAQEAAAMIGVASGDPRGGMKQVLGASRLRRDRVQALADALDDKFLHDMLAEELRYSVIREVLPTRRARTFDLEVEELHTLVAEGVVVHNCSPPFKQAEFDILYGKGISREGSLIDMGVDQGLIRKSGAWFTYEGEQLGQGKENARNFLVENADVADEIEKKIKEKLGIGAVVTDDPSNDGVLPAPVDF

MDCK [5] = test: MDCK cell cytotoxicity, dose response, cytotoxicity control (AID 540296); format: functional; conditions: Canis lupus familiaris
Vero = test: Vero E6 cell cytotoxicity, dose response, cytotoxicity control (AID 540298); format: functional; conditions: Chlorocebus sabaeus
[6] = biological target: T4, Replicative DNA helicase DnaB (Mycobacterium tuberculosis, UniProt P9WMR3); test: DnaB intein splicing inhibitors, dose response, biochemical, cell-free fluorescence (AID 449749); format: functional
T4 sequence (P9WMR3 whole entry): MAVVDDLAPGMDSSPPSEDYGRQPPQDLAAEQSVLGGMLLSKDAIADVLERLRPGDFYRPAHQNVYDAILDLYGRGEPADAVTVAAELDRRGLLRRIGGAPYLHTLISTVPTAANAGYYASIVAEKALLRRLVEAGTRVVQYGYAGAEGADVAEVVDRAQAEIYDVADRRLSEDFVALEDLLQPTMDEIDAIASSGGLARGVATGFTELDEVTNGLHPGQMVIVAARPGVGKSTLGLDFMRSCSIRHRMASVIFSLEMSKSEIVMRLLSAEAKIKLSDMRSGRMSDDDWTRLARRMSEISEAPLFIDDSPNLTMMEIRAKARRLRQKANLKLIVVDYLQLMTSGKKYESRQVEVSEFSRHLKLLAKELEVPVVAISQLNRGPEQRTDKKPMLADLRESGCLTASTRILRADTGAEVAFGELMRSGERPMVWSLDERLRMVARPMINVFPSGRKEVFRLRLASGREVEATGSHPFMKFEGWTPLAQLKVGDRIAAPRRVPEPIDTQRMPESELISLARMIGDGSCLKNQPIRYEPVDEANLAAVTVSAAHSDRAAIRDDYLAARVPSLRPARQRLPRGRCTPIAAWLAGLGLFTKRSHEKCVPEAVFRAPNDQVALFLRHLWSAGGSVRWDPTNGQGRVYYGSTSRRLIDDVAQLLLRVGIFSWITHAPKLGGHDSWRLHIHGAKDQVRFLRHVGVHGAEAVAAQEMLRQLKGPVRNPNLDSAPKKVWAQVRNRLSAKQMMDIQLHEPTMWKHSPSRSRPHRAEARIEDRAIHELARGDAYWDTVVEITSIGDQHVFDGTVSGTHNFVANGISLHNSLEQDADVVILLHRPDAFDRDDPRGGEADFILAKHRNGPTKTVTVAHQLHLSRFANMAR

MDCK [7] = test: antiviral activity against H1N1 influenza, dose response, cell-based, strain KY136 (AID 540257); format: functional; conditions: Canis lupus familiaris
Nonstructural protein 1 = Nonstructural protein 1 (Influenza A virus, UniProt Q194T2); format: functional, Influenza A virus (A/California/07/2009(H1N1))
BJ [8] = test: cytotoxicity toward BJ-TERT-LT-ST fibroblasts, dose response, cell-based, RAS-independent, luminescence (AID 1935); format: functional; conditions: Homo sapiens;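 note: BJ fibroblasts immortalized with TERT plus LT and ST oncogenes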
BJ [9] = test: cytotoxicity toward Ras-transformed BJeLR fibroblasts, dose response, cell-based, alamar blue fluorescence, cherrypicked samples (AID 2631); format: functional; conditions: Homo sapiens;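 note: confirmatory dose-response assay in RAS-dependent BJ fibroblasts engineered with TERT, LT and ST, with cytotoxicity read by fluorescence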
[10] = Luminescence Cell-Based Dose Response HTS to Identify Inhibitors of 5'UTR Stem-Loop Driven Prion Protein mRNA Translation in H4 Neuroglioblastoma Cells. [Related pubchem assays: 1827 (Project Summary), 1813 (Primary HTS)]; format: functional
[11] = cytotoxicity toward DRD oncogenic fibroblasts, dose response, cell-based, non-viral oncogenic, luminescence (AID 1934); format: functional; conditions: Homo sapiens
[12] = inhibitors of firefly luciferase expression or activity, dose response, H4 neuroglioma cells, luminescence (AID 1990); format: functional, cell-based
[13] = biological target: T5, Heat shock factor protein 1 (Mus musculus, UniProt P38532); test: inhibition of MG132-induced HSE-luciferase signal, confirmation, cell-based, NIH3T3, luminescence, dose retest (AID 2382); format: functional;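 note: NIH3T3 fibroblasts with HSF1-driven luciferase reporter stressed by proteasome inhibitor MG132; luminescence from HSF1-driven luciferase expression after 8 hours of MG132 stress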
T5 sequence (P38532 whole entry): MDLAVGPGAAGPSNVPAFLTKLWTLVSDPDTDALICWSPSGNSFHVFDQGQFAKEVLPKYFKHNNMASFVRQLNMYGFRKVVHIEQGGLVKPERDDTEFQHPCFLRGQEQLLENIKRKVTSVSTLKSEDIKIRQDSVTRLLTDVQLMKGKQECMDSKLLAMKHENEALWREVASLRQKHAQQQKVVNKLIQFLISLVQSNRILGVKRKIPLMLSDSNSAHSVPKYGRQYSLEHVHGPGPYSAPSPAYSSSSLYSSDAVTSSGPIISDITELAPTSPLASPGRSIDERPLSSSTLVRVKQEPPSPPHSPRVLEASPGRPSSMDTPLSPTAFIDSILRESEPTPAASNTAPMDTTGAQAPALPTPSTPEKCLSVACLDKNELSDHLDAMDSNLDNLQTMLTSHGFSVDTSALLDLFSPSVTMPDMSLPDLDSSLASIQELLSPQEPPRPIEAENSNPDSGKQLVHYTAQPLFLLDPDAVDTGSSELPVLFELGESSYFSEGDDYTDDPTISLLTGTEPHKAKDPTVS

[14] = inhibitors of SNCA 5'UTR-driven reporter translation, confirmation, H4 neuroglioma cells, luminescence (AID 1988); format: functional, cell-based
BJ [15] = test: cells; format: functional, cell-based; conditions: Homo sapiens
BJ [16] = test: cytotoxicity toward BJ-TERT fibroblasts, dose response, cell-based, RAS-independent, luminescence (AID 1933); format: functional; conditions: Homo sapiens

T1 sequence (P63165 whole entry): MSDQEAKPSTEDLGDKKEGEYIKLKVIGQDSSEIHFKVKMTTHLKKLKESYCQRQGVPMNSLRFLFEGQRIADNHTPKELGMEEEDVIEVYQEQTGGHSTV
T2 sequence (P25098 whole entry): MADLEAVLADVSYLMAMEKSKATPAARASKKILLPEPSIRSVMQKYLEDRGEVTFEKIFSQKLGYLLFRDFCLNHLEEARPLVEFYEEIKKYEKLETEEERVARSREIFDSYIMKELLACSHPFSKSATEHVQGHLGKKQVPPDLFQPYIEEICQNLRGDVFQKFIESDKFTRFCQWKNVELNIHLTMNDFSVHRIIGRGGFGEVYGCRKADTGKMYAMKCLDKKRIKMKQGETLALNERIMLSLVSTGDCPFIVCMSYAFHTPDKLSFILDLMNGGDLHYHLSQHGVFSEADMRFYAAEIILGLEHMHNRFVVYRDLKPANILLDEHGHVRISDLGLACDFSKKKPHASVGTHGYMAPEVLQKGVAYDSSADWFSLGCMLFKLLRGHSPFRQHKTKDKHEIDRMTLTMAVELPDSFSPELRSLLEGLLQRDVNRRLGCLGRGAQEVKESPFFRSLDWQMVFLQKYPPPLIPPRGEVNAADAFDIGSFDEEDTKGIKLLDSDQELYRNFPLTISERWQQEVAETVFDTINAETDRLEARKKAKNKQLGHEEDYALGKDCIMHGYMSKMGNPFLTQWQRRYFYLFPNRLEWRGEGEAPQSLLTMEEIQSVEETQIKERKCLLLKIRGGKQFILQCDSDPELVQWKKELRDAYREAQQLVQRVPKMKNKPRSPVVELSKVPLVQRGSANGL
Sequence of Nonstructural protein 1 (Q194T2 whole entry): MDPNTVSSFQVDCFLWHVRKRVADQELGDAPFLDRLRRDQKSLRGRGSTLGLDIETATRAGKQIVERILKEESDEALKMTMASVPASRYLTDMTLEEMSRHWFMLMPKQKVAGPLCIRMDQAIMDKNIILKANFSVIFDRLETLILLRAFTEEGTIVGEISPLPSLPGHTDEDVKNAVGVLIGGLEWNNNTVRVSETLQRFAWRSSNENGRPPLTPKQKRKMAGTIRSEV

CC(CS(=O)(=O)c1ccc2c(c1)NC(=O)CS2)C(=O)NCc1ccccc1Cl (stereo unspecified)
IC50 [1]: > 66.6 µM (inactive) | IC50 [2]: 4.08 µM (active) | EC50 [3]: 0.638 µM (active) | EC50 [4]: 7.53 µM (active)

COc1cccc(/C=C2\SC(=S)N(CCCC(=O)N3CCCC3)C2=O)c1
EC50 (Protein RecA): > 380 µM (inactive) | CC50 (MDCK [5]): > 40 µM (active) | CC50 (Vero): 12.8 µM (active) | AC50 [6]: 71.1 µM (active) | IC50 (MDCK [7]): 32.9 µM (active) | IC50 (Nonstructural protein 1): 66.8 µM (active)

COc1cc(C2CC(c3cccs3)=NN2C(=O)CCl)ccc1OC(F)F (stereo unspecified)
EC50 (Protein RecA): 1.13 µM (active) | EC50 (BJ [8]): 4.47 µM (inconclusive) | EC50 (BJ [9]): 0.608 µM (active) | EC50 [10]: 11 µM (active) | AC50 [6]: 1.51 µM (active) | EC50 [11]: 1.95 µM (active) | EC50 [12]: > 120 µM (not active) | EC50 [13]: 3.04 µM (active) | EC50 [14]: 8.46 µM (active) | EC50 (BJ [15]): 2.56 µM (active) | EC50 (BJ [16]): 0.625 µM (active)
